The logP is a log measure of how a compound divides between an organic and an aqueous phase. The term logD denotes lipophilicity at a set pH, counting ionised and neutral species.

Experiment in one data set: not given
Settings: not given
The molecule `CC(=O)C1(O)Cc2c(O)c3c(c(O)c2C(OC2CC(N)C(O)C(C)O2)C1)C(=O)c1c(O)cccc1C3=O` (stereo unspecified) showed a log partition coefficient (logP) of 0.96.

Experiment in another data set: not given
Settings: not given
This is another data set of the same source.
Molecule `OC1(c2ccc(Br)cc2)c2ccccc2C2=NCCN21` (stereo unspecified) gave a logP of 1.9.
Still for that read-out and setting: as for `OC1(c2ccc(F)cc2)c2ccccc2C2=NCCN21` (stereo unspecified), the figure is 0.95.
The same measure, in the same setting: as for `OC1(c2cccc(F)c2)c2ccccc2C2=NCCN21` (stereo unspecified), the figure is 1.28; as for `OC1(c2ccc(I)cc2)c2ccccc2C2=NCCN21` (stereo unspecified), 2.2.

Experiment in a further data set: not given
Settings: not given
This is another data set of the same source.
`O=C(CCCN1CCC(C(O)(c2ccccc2)c2ccccc2)CC1)c1ccccc1` returned a logP of 4.42.
Take `CC(C)(C)c1ccc(C(O)CCCN2CCC(C(O)c3ccccc3)CC2)cc1` (stereo unspecified): the log partition coefficient (logP) is 4.06.

A short description of another data set: method code SF-AS, from PMID: 5136171.
Settings: not given
In turn, `CCOC(=O)c1cnc2cc(OCCOC)c(OC)cc2c1O` displayed a logP of 1.36.
Regarding `CCOC(=O)c1cnc2cc(OCc3ccccc3)c(OCCOC)cc2c1O`, the log partition coefficient (logP) turned out to be 1.95.
Still for that read-out and setting: as for `CCOC(=O)c1cnc2cc(OCCOC(C)C)c(OCC(C)C)cc2c1O`, the figure is 2.17.
The same measure, in the same setting: as for `CCOC(=O)c1cnc2cc(OCC(C)C)c(OCC(C)C)cc2c1O`, the figure is 2.18.

Experiment in the next data set: not given
Settings: not given
The source holds these as a separate data set.
The molecule `CC1CCC2C(C)C(OC3OC(C(=O)O)C(O)C(O)C3O)OC3OC4(C)CCC1C32OO4` (stereo unspecified) came in with a logP of 1.08.
Still for that read-out and setting: as for `CCOC1OC2OC3(C)CCC4C(OC5OC(C(=O)O)C(O)C(O)C5O)CCC(C1C)C24OO3` (stereo unspecified), the figure is 1.05; as for `CCOC1OC2OC3(C)C=C(O)C4C(C)CCC(C1C)C24OO3` (stereo unspecified), 2.7.
Molecule `CCOC1OC2OC3(C)CC(OC4OC(C(=O)O)C(O)C(O)C4O)C4C(C)CCC(C1C)C24OO3` (stereo unspecified) gave a logP of 1.73.

Experiment in a further data set: not given
Settings: not given
The source holds these as a separate data set.
With `CCOC(=O)C(c1c(O)c2ccccc2oc1=O)c1c(O)c2ccccc2oc1=O`, the lipophilicity (logP) was found to be 1.32.
Same read-out and setting: as for `COCC(c1c(O)c2ccccc2oc1=O)c1c(O)c2ccccc2oc1=O`, the figure is 1.38; as for `CCC(c1c(O)c2ccccc2oc1=O)c1c(O)c2ccccc2oc1=O`, 2.02; as for `O=c1oc2ccccc2c(O)c1C(c1ccccc1)c1c(O)c2ccccc2oc1=O`, 1.95.

Experiment in a further data set: not given
Settings: not given
The source holds these as a separate data set.
In turn, `O=c1[nH]ccc2c(Nc3c(Cl)cc(C(O)C(F)F)cc3Cl)nc3ccncc3c12` (stereo unspecified) returned a log partition coefficient (logP) of 1.46.
Consider `O=c1[nH]ccc2c(Nc3c(F)cc(F)cc3Cl)nc3ccncc3c12`, for which the lipophilicity (logP) stood at 1.75.
The molecule `CC(O)c1cc(Cl)c(Nc2nc3ccncc3c3c(=O)[nH]ccc23)c(Cl)c1` (stereo unspecified) registered a logP of 1.2.
The same measure, in the same setting: as for `O=c1[nH]ccc2c(Nc3c(Cl)cc(C4=NNCC4)cc3Cl)nc3ccncc3c12`, the figure is 1.43.

Experiment in a further data set: not given
Settings: not given
This is another data set of the same source.
In the case of `COc1cccc(OC)c1C(=O)N[C@@H]1C(=O)N2[C@@H]1SC(C)(C)[C@@H]2C(=O)O`, the logP stood at 1.22.
As to `CC1(C)S[C@@H]2[C@H](NC(=O)Cc3ccccc3)C(=O)N2[C@H]1C(=O)O`, the logP turned out to be 1.83.
The molecule `CC1(C)SC2C(NC(=O)CCOc3ccccc3)C(=O)N2C1C(=O)O` (stereo unspecified) displayed a lipophilicity (logP) of 2.28.
The same measure, in the same setting: as for `CC1(C)SC2C(NC(O)c3ccccc3)C(=O)N2C1C(=O)O` (stereo unspecified), the figure is 1.4.

The nature of the next data set: method code SF-AS, from DOI: 10.1135/cccc19881862. The note with it: pH 3.4.
Consider `O=C(O)C(OCc1ccccc1)c1ccccc1` (stereo unspecified), for which the log distribution coefficient (logD) amounted to 2.
For `COc1ccc(COC(C(=O)O)c2ccccc2)cc1Cl` (stereo unspecified), the pH-dependent lipophilicity (logD) was found to be 2.45.

Staying with this data set, now noted: pH 3.5.
The molecule `O=C(O)CCCC(=O)c1ccc(-c2ccc(-c3ccccc3)cc2)cc1` registered a logD of 3.35.
Same read-out and setting: as for `O=C(O)CCC(=O)c1ccc(-c2ccc(-c3ccccc3)cc2)cc1`, the figure is 3.2.

A short description of another data set: method code SF-RC, from DOI: 10.1002/ps.2780410303. The note with it: pH 2.0.
Turning to `CC(C)C1(C)N=C(c2ncc(S(C)(=O)=O)cc2C(=O)O)NC1=O` (stereo unspecified), the log distribution coefficient (logD) is -0.05.

The data set is the same for the next values; noted with them: pH 2.5.
As to `CC(C)C1(C)N=C(c2ncc(CO)cc2C(=O)O)NC1=O` (stereo unspecified), the logD was -0.21.

The data set is the same for the next values; noted with them: pH 2.8.
`CCCc1cnc(C2=NC(C)(C(C)C)C(=O)N2)c(C(=O)O)c1` (stereo unspecified): the pH-dependent lipophilicity (logD) is 1.27.
The same measure, in the same setting: as for `CSc1cnc(C2=NC(C)(C(C)C)C(=O)N2)c(C(=O)O)c1` (stereo unspecified), the figure is 0.75.

A further data set can be described thus: method code SF-AS, from DOI: 10.1006/pest.1994.1014.
Settings: not given
The molecule `CC(C)(C)N(NC(=O)c1ccccc1F)C(=O)c1ccccc1Cl` had a logP of 2.63.
Same read-out and setting: as for `Cc1cccc(C(=O)NN(C(=O)c2ccccc2Cl)C(C)(C)C)c1`, the figure is 3.11; as for `CC(C)(C)N(NC(=O)c1cccc(Cl)c1)C(=O)c1ccccc1Cl`, 3.49.
`CC(C)(C)N(NC(=O)c1cccc(F)c1)C(=O)c1ccccc1Cl` came in with a logP of 2.88.

The nature of another data set: method code SF-HPLC, from DOI: 10.1002/etc.5620081103.
Settings: not given
For the molecule `COc1cc(N=Nc2c(Br)cc([N+](=O)[O-])cc2Br)c(NC(C)=O)cc1N(CCOC(C)=O)CCOC(C)=O`, the lipophilicity (logP) came to 4.8.
`C=CCN(CCC#N)c1cc(NC(C)=O)c(/N=N/c2c(Br)cc([N+](=O)[O-])cc2[N+](=O)[O-])cc1OC` yielded a logP of 5.4.
In the case of `CC(=O)OCCN(CCC#N)c1ccc(/N=N/c2nc3ccc([N+](=O)[O-])cc3s2)cc1`, the log partition coefficient (logP) amounted to 4.6.
Turning to `O=C1C(c2nc3ccccc3cc2O)=C(O)c2ccccc21`, the log partition coefficient (logP) came to 5.

Another data set in a line: method code SF-AS, from DOI: 10.1016/0048-3575(88)90061-2.
Settings: not given
In turn, `O=C(NC(=O)c1c(F)cccc1F)Nc1ccc(Oc2ncc(Cl)cc2C(F)(F)F)cc1` returned a logP of 3.5.
Consider `O=C(NC(=O)c1c(F)cccc1F)Nc1ccc(Oc2ccc(C(F)(F)F)cn2)cc1`, for which the log partition coefficient (logP) was found to be 2.8.
As for `O=C(NC(=O)c1c(F)cccc1F)Nc1ccc(Oc2ncc(C(F)(F)F)cc2Cl)cc1`, the logP is 3.53.
In turn, `O=C(NC(=O)c1c(F)cccc1F)Nc1ccc(Oc2ccccn2)cc1` registered a log partition coefficient (logP) of 1.57.

Another data set can be described thus: method code SF-AS, from DOI: 10.1080/10826076.2011.619030.
Settings: not given
For the molecule `CC1(C)OC2C(COC(=O)c3ccccc3)OC(n3ccc(=O)[nH]c3=O)C2O1` (stereo unspecified), the logP worked out at 1.29.
Still for that read-out and setting: as for `CC1(C)OC2C(COC3CC(O)C(O)C(CO)O3)OC(n3ccc(=O)n(C(=O)c4ccccc4)c3=O)C2O1` (stereo unspecified), the figure is 0.13; as for `CC1(C)OC2C(COC3CC(O)C(O)C(CO)O3)OC(n3ccc(=O)[nH]c3=O)C2O1` (stereo unspecified), -1.56; as for `CC1(C)OC2C(COC3CC(O)C(O)C(CO)O3)OC(n3ccc(=O)n(Cc4ccccc4)c3=O)C2O1` (stereo unspecified), 0.59.

The nature of the next data set: method code SF-HPLC, from DOI: 10.1016/0378-5173(92)90116-j. The note with it: pH 7.4.
As to `CCC(C(=O)OCCCCCCOC(=O)C(CC)C(CO)Cc1cncn1C)C(CO)Cc1cncn1C` (stereo unspecified), the logD is 1.84.
Turning to `CCC(C(=O)OCCCCOC(=O)C(CC)C(CO)Cc1cncn1C)C(CO)Cc1cncn1C` (stereo unspecified), the logD is 1.16.
Still for that read-out and setting: as for `CCC(C(=O)OCCCOC(=O)C(CC)C(CO)Cc1cncn1C)C(CO)Cc1cncn1C` (stereo unspecified), the figure is 0.68; as for `CCC(C(=O)OCc1cccc(COC(=O)C(CC)C(CO)Cc2cncn2C)c1)C(CO)Cc1cncn1C` (stereo unspecified), 1.99.

A short description of the next data set: method code SF-AS, from DOI: 10.1021/jm00371a026, PMID: 6425501. The note with it: pH 7.4.
On to `CO[C@@]12[C@H](COC(N)=O)C3=C(C(=O)C(C)=C(Nc4ccc(C)nc4)C3=O)N1C[C@@H]1N[C@@H]12`, for which the log distribution coefficient (logD) amounted to 0.59.
Consider `CO[C@@]12[C@H](COC(N)=O)C3=C(C(=O)C(C)=C(Nc4ccccc4)C3=O)N1C[C@@H]1N[C@@H]12`, for which the logD was found to be 1.3.
Same read-out and setting: as for `CO[C@@]12[C@@H]3N[C@@H]3CN1C1=C(C(=O)C(Nc3nc(C)cs3)=C(C)C1=O)[C@@H]2COC(N)=O`, the figure is 1.16; as for `CO[C@@]12[C@H](COC(N)=O)C3=C(C(=O)C(C)=C(Nc4nc(C)c(C)s4)C3=O)N1C[C@@H]1N[C@@H]12`, 1.29.

The nature of another data set: method code SF, from DOI: 10.1016/j.bmc.2005.05.004, PMID: 15946850. The note with it: pH 7.4.
The molecule `N#Cc1c(-c2ccc(OCCCc3c[nH]cn3)cc2)no[n+]1[O-]` came in with a pH-dependent lipophilicity (logD) of 2.99.
With `OCc1nonc1-c1ccc(OCCCc2c[nH]cn2)cc1`, the pH-dependent lipophilicity (logD) turned out to be 1.96.
`N#Cc1nonc1-c1ccc(OCCCc2c[nH]cn2)cc1` came in with a logD of 3.04.
`[O-][n+]1onc(-c2ccc(OCCCc3c[nH]cn3)cc2)c1CO` returned a logD of 1.83.

The nature of a further data set: from Wadhwa, L.; Chandiran, S.; Sharma, P. (2004). Alkyl esters of 6-methoxy-2-naphthylacetic acid as potential prodrugs - Synthesis, physicochemical properties, chemical stability and enzymatic …. The note with it: pH 7.4.
For the molecule `CCOC(=O)Cc1ccc2cc(OC)ccc2c1`, the logD stood at 3.04.
With `COc1ccc2cc(CC(=O)OCC(C)C)ccc2c1`, the logD stood at 4.71.
Still for that read-out and setting: as for `COc1ccc2cc(CC(=O)OC(C)C)ccc2c1`, the figure is 4.
Same read-out and setting: as for `CCCOC(=O)Cc1ccc2cc(OC)ccc2c1`, the figure is 4.14.

A short description of the next data set: method code SF-AS, from Kourounakis, P.; Chilliard, N. (1983). Ionization constants and partition coefficients of some 1,1-diphenyl-1-alkoxy-3-dialkylamino-2-propanones with analgesic activity. Pharmazie, 38(6)388-389. The note with it: pH 7.4.
Consider `C#CCOC(C(=O)CN(C)C)(c1ccccc1)c1ccccc1`, for which the log distribution coefficient (logD) came to 0.7.
The same measure, in the same setting: as for `CCCOC(C(=O)CN(C)C)(c1ccccc1)c1ccccc1`, the figure is 1.73; as for `CC#CCOC(C(=O)CN(C)C)(c1ccccc1)c1ccccc1`, 0.85.
Still for that read-out and setting: as for `CCOC(C(=O)CN1CCOCC1)(c1ccccc1)c1ccccc1`, the figure is 1.08.

The values above are taken from the SangsterLogP compilation.
